{"source": "paper PMC7083880", "about": "(Nature Communications, 2020)", "key": {"[1]": {"system": "firefly luciferase (Fluc) gene with UAG nonsense codon at position 109 in HeLa cells", "assay": "Firefly luciferase readthrough assay, UAG PTC construct", "assay_type": "cell-based, human", "conditions": "G418 1mg/ml"}, "[2]": {"system": "nonsense-mediated mRNA decay (NMD) in Calu-6 cells", "assay": "NMD efficiency: p53 mRNA / GAPDH mRNA by RT-PCR", "assay_type": "cell-based, human", "conditions": "24 h; for Ratio of p53 mRNA to GAPDH mRNA: 600µM", "procedure": "Source data are provided as a Source Data file.\nTotal RNA was purified from Calu-6 cells after 24 h of treatment.\nRNA was purified using RNazol (MRC) according to the manufacturer’s instructions. 1/5 of the RNA preparation was used for reverse-transcription (RT) PCR (RT-PCR) using Superscript II (Life Technologies) for 2 h at 42 °C in the presence of random hexamers. The resulting cDNAs were PCR amplified in the presence of dCTP(α^33P) (Perkin Elmer) with the following primers: GAPDH mRNA (sense: 5′-[…]-3′; antisense: 5′-[…]-3′), p53 mRNA (sense: 5′-[…]-3′; antisense: 5′-[…]-3′), p21 mRNA (sense: 5′-[…]-3′; antisense: 5′-[…]-3′). PCR products were quantified with Personal Molecular Imager and QuantityOne quantification software (Bio-Rad)."}, "[3]": {"molecular_target": "T1, CTU1 (Homo sapiens, UniProt Q7Z7A3)", "T1 construct": "host or cells: HeLa", "T1 sequence (Q7Z7A3 1-348)": "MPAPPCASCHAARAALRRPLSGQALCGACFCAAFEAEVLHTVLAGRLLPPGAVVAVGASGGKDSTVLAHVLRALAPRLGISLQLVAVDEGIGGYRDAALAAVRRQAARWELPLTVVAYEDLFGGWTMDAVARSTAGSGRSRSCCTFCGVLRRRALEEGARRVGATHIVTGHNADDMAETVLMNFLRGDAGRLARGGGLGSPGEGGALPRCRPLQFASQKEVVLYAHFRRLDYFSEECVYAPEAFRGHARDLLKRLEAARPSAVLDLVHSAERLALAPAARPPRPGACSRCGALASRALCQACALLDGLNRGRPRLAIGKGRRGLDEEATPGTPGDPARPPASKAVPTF", "assay": "UGA readthrough luciferase assay with CTU1 overexpression;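 for luciferase activity, average: DAP exposure for 24 h before luciferase measurement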;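 for luciferase activity, exp2: DAP exposure for 24 h before luciferase measurement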", "assay_type": "cell-based", "excerpt": "(§1) Firefly luciferase from HEK293FT cells transfected with the Fluc-int-UGA construct was immunoprecipitated and digested with trypsin. The MS/MS spectrum of the peptide containing the PTC position and the sequence determination are shown. The upper red and blue sequences indicate the amino acids validated, respectively, by detection of Nter and Cter peptide fragments (b and y ion series). Peptide fragments y6 and y7 clearly identify tryptophan (W) at the PTC position. The black peaks correspond to non-attributed mass-to-charge ratio (m/z) values. […] Readthrough efficiency was determined by measuring luciferase activity in HeLa cells co-transfected with the firefly luciferase construct described in Fig. 1b and with increasing amounts of an expression vector for either FTSJ1 or CTU1 (0.5, 1, or 2 µg). The empty expression vector (E.v.) was used as control. […] The experiment was performed twice and the results of both experiments (Exp1 and Exp2) are shown. c Western blot analysis of FTSJ1 and CTU1. d 2′-O-methylation analysis of tRNA^Trp, tRNA^SER, and tRNA^GLN by RiboMethSeq. […] A molecular weight marker is indicated to the left of each gel. p-values (p) were calculated using Student’s t-test. Source data are provided as a Source Data file.\n(§2) Among the enzymes modifying tRNAs liable to recognize a stop codon by extended wobbling, human FTSJ1 (TRM7 in yeast) exclusively modifies tRNAs involved in UGA readthrough. In addition to other tRNA targets, FTSJ1 methylates the cytosine at position 34 of tRNA^Trp. Inhibition of this modification could increase the capacity of tRNA^Trp to misdecode and recognize the UGA stop codon. […] FTSJ1 and CTU1 overexpression were assessed by western-blot analysis (Fig. 5c)."}, "[4]": {"system": "firefly luciferase construct with UGA PTC in HeLa cells", "assay": "UGA readthrough luciferase assay with empty expression vector (E.v.) control", "assay_type": "cell-based, human", "excerpt": "as §1, §2"}}, "note": "Values joined by “and” are separate entries in the source; they are usually repeats but may differ in a detail not shown here. Equal values may be shown once.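 Throughout, for luciferase activity, average: DAP exposure for 24 h before luciferase measurement.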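 Throughout, for luciferase activity, exp2: DAP exposure for 24 h before luciferase measurement.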"}
{"smiles": "CN[C@@H]1[C@@H](O)[C@@H](O[C@@H]2[C@@H](O)[C@H](O[C@H]3O[C@H]([C@@H](C)O)[C@@H](O)[C@H](O)[C@H]3N)[C@@H](N)C[C@H]2N)OC[C@]1(C)O", "note": "[G418, reference compound]", "values": [{"measurement": "Luciferase activity, UAG PTC", "setting": "[1]; average of 2 experiments", "result": "2275.5±805 and 2275.5"}, {"measurement": "Luciferase activity, UAG PTC", "setting": "[1]; experiment 1", "result": 2845}, {"measurement": "Luciferase activity, UAG PTC", "setting": "[1]; experiment 2", "result": 1706}, {"measurement": "Ratio of p53 mRNA to GAPDH mRNA", "setting": "[2]; average", "result": 0.3943}, {"measurement": "Ratio of p53 mRNA to GAPDH mRNA", "setting": "[2]; experiment 1", "result": 0.4107}, {"measurement": "Ratio of p53 mRNA to GAPDH mRNA", "setting": "[2]; experiment 2", "result": 0.3778}, {"measurement": "Increase in p53 mRNA", "setting": "[2]", "result": 1.8, "unit": "fold"}, {"measurement": "luciferase activity, average", "setting": "[3]; 0.5µg CTU1, 25µM", "result": 3303.88}, {"measurement": "luciferase activity, exp1", "setting": "[3]; 0.5µg CTU1, 25µM", "result": 2866.5}, {"measurement": "luciferase activity, exp1*1,5", "setting": "[3]; 0.5µg CTU1, 25µM", "result": 4299.75}, {"measurement": "luciferase activity, exp2", "setting": "[3]; 0.5µg CTU1, 25µM", "result": 2308}, {"measurement": "luciferase activity, average", "setting": "[3]; 0.5µg CTU1, 600µM", "result": 6542.12}, {"measurement": "luciferase activity, exp1", "setting": "[3]; 0.5µg CTU1, 600µM", "result": 5872.5}, {"measurement": "luciferase activity, exp1*1,5", "setting": "[3]; 0.5µg CTU1, 600µM", "result": 8808.75}, {"measurement": "luciferase activity, exp2", "setting": "[3]; 0.5µg CTU1, 600µM", "result": 4275.5}, {"measurement": "luciferase activity, average", "setting": "[3]; 1µg CTU1, 25µM", "result": 3585}, {"measurement": "luciferase activity, exp1", "setting": "[3]; 1µg CTU1, 25µM", "result": 3346}, {"measurement": "luciferase activity, exp1*1,5", "setting": "[3]; 1µg CTU1, 25µM", "result": 5019}, {"measurement": "luciferase activity, exp2", "setting": "[3]; 1µg CTU1, 25µM", "result": 2151}, {"measurement": "luciferase activity, average", "setting": "[3]; 1µg CTU1, 600µM", "result": 5848.5}, {"measurement": "luciferase activity, exp1", "setting": "[3]; 1µg CTU1, 600µM", "result": 6204}, {"measurement": "luciferase activity, exp1*1,5", "setting": "[3]; 1µg CTU1, 600µM", "result": 9306}, {"measurement": "luciferase activity, exp2", "setting": "[3]; 1µg CTU1, 600µM", "result": 2391}, {"measurement": "luciferase activity, average", "setting": "[3]; 2µg CTU1, 25µM", "result": 2193.38}, {"measurement": "luciferase activity, exp1", "setting": "[3]; 2µg CTU1, 25µM", "result": 1845.5}, {"measurement": "luciferase activity, exp1*1,5", "setting": "[3]; 2µg CTU1, 25µM", "result": 2768.25}, {"measurement": "luciferase activity, exp2", "setting": "[3]; 2µg CTU1, 25µM", "result": 1618.5}, {"measurement": "luciferase activity, average", "setting": "[3]; 2µg CTU1, 600µM", "result": 2999.5}, {"measurement": "luciferase activity, exp1", "setting": "[3]; 2µg CTU1, 600µM", "result": 2670}, {"measurement": "luciferase activity, exp1*1,5", "setting": "[3]; 2µg CTU1, 600µM", "result": 4005}, {"measurement": "luciferase activity, exp2", "setting": "[3]; 2µg CTU1, 600µM", "result": 1994}, {"measurement": "luciferase activity, average", "setting": "[4]; 25µM", "result": 5230.12}, {"measurement": "luciferase activity, exp1", "setting": "[4]; 25µM", "result": 3250.5}, {"measurement": "luciferase activity, exp1*1,5", "setting": "[4]; 25µM", "result": 4875.75}, {"measurement": "luciferase activity, exp2", "setting": "[4]; 25µM", "result": 5584.5}, {"measurement": "luciferase activity, average", "setting": "[4]; 600µM", "result": 9792.88}, {"measurement": "luciferase activity, exp1", "setting": "[4]; 600µM", "result": 6265.5}, {"measurement": "luciferase activity, exp1*1,5", "setting": "[4]; 600µM", "result": 9398.25}, {"measurement": "luciferase activity, exp2", "setting": "[4]; 600µM", "result": 10187.5}]}
